From ChEMBL document CHEMBL1129502, “Betulinic acid and dihydrobetulinic acid derivatives as potent anti-HIV agents” (J Med Chem, 1996) come the findings set out here.

Bounds are passed on as bounds.

A short description of series [1]: Concentration inhibiting HIV-1 replication by 50% in infected H9 lymphocyte cells. As to conditions: human, HIV-1-infected H9 lymphocyte cells; call rule not given here.
Series [2] concerns H9. Kind of series: Inhibitory activity […] in mock infected H9 cells. The format is functional, cell-based. As to conditions: Homo sapiens.
Series [3] deals with Human immunodeficiency virus 1. Kind of series: Inhibitory activity against HIV-1-induced syncytia determined by fusion assay. It is filed as functional.
Series [4] deals with HIV-1 reverse transcriptase (Human immunodeficiency virus 1). In words: Inhibitory activity against HIV-RT; no inhibition.
Series [5] relates to Human immunodeficiency virus 1. In words: full Inhibitory activity against HIV-1-induced syncytia. It is filed as functional.

Turning to `C=C(C)[C@@H]1CC[C@]2(C(=O)O)CC[C@]3(C)[C@H](CC[C@@H]4[C@@]5(C)CC[C@H](OC(=O)CC(C)(C)C(=O)O)C(C)(C)[C@@H]5CC[C@]43C)[C@@H]12` [BEVIRIMAT], the EC50 in series [1] was < 3500 nM. In series [2], this molecule registered an IC50 of 7 µM. The molecule also showed an IC100 in series [3] of 34 µM.
For `C=C(C)[C@@H]1CC[C@]2(C(=O)O)CC[C@]3(C)[C@H](CC[C@@H]4[C@@]5(C)CC[C@H](OC(=O)CC(C)(C)CC(=O)O)C(C)(C)[C@@H]5CC[C@]43C)[C@@H]12`, in series [1], the EC50 was determined as 2300 nM. In series [2], this molecule showed an IC50 of 4.5 µM. Moreover, the IC100 in series [3] turned out to be 50 µM.
For the molecule `CC(C)[C@@H]1CC[C@]2(C(=O)O)CC[C@]3(C)[C@H](CC[C@@H]4[C@@]5(C)CC[C@H](OC(=O)C(C)(C)CC(=O)O)C(C)(C)[C@@H]5CC[C@]43C)[C@@H]12`, in series [1], a half-maximal effect (EC50) was put at 560 nM. In addition, the IC50 in series [2] came out at 7.7 µM.
Regarding `C=C(C)[C@@H]1CC[C@]2(C(=O)NCCCCCCCC(=O)N[C@@H](CC(C)C)[C@@H](O)CC(=O)O)CC[C@]3(C)[C@H](CC[C@@H]4[C@@]5(C)CC[C@H](O)C(C)(C)[C@@H]5CC[C@]43C)[C@@H]12`, the IC50 result in series [4] is “Not Active”; in series [2], 2.7 µM. Further, the response in series [1] was half-maximal at 30 nM (EC50). For the same molecule, the IC100 in series [5] turned out to be 3 µM.
For `CC(C)[C@@H]1CC[C@]2(C(=O)O)CC[C@]3(C)[C@H](CC[C@@H]4[C@@]5(C)CC[C@H](OC(=O)CC(C)(C)C(=O)O)C(C)(C)[C@@H]5CC[C@]43C)[C@@H]12`, the EC50 in series [1] is < 3500 nM. In addition, in series [2], it took 4.9 µM to reach half-maximal inhibition (IC50). The molecule further showed an IC100 in series [3] of 34 µM.
Molecule `CC(C)[C@@H]1CC[C@]2(C(=O)O)CC[C@]3(C)[C@H](CC[C@@H]4[C@@]5(C)CC[C@H](OC(=O)CC(C)(C)CC(=O)O)C(C)(C)[C@@H]5CC[C@]43C)[C@@H]12` displayed an EC50 in series [1] of 5700 nM. In series [2], it took 5.8 µM to reach half-maximal inhibition (IC50). This molecule also returned an IC100 in series [3] of 33 µM.
With `CC(C)[C@@H]1CC[C@]2(C(=O)O)CC[C@]3(C)[C@H](CC[C@@H]4[C@@]5(C)CC[C@H](O)C(C)(C)[C@@H]5CC[C@]43C)[C@@H]12` [DIHYDROBETULINIC ACID], a half-maximal effect in series [1] (EC50) was put at 900 nM. The molecule further returned an IC50 in series [2] of 12.6 µM. In series [5], the IC100 was >218 µM.
Consider `C=C(C)[C@@H]1CC[C@]2(C(=O)O)CC[C@]3(C)[C@H](CC[C@@H]4[C@@]5(C)CC[C@H](OC(=O)COCC(=O)O)C(C)(C)[C@@H]5CC[C@]43C)[C@@H]12`, for which the EC50 in series [1] was 10 nM. The molecule also showed an IC50 in series [2] of 11.7 µM. In addition, the IC100 in series [3] turned out to be 70 µM.
Taken in the same sequence, the figures for `C=C(C)[C@@H]1CC[C@]2(C(=O)O)CC[C@]3(C)[C@H](CC[C@@H]4[C@@]5(C)CC[C@H](OC(=O)C(C)(C)CC(=O)O)C(C)(C)[C@@H]5CC[C@]43C)[C@@H]12` were 2700 nM, 15.9 µM and 34 µM.
For the molecule `C=C(C)[C@@H]1CC[C@]2(C(=O)O)CC[C@]3(C)[C@H](CC[C@@H]4[C@@]5(C)CC[C@H](O)C(C)(C)[C@@H]5CC[C@]43C)[C@@H]12` [BETULINIC ACID], the EC50 in series [1] came to 1400 nM. This molecule returned an IC50 in series [2] of 13 µM. For the same molecule, the IC100 in series [3] is >219 µM.
The matching figures for `CC(C)[C@@H]1CC[C@]2(C(=O)O)CC[C@]3(C)[C@H](CC[C@@H]4[C@@]5(C)CC[C@H](OC(=O)COCC(=O)O)C(C)(C)[C@@H]5CC[C@]43C)[C@@H]12`: 5600 nM, 13.1 µM and 70 µM.
